Results taken from paper doi:10.1101/153262v1 (biorxiv, 2017).

Target: T1, EiCsm6 (Enterococcus italicus, UniProt E6LHV2)
T1 sequence (E6LHV2 1-430): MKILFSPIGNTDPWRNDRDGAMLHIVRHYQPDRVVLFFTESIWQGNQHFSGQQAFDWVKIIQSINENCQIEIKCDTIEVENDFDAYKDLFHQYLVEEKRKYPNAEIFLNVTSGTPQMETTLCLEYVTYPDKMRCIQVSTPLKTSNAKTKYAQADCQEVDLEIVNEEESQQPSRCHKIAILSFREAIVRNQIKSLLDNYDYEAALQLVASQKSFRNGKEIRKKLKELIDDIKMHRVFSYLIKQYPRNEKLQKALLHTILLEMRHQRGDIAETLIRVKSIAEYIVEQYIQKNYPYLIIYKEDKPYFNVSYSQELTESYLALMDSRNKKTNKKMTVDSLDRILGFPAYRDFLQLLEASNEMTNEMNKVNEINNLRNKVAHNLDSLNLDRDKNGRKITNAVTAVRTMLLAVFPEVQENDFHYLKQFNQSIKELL
Assay: fluorogenic RNase Alert cleavage, initial velocities, log
Assay type: biochemical
Details: activator; allosteric, CARF domain; 20 mM HEPES pH 7.5, 50 mM KCl

- EC50: ~60 nM
Compound: Nc1ncnc2c1ncn2[C@@H]1O[C@H](CO)[C@@H](OP(=O)(O)OC[C@H]2O[C@@H](n3cnc4c(N)ncnc43)[C@H](O)[C@@H]2OP(=O)(O)OC[C@H]2O[C@@H](n3cnc4c(N)ncnc43)[C@H](O)[C@@H]2OP(=O)(O)OC[C@H]2O[C@@H](n3cnc4c(N)ncnc43)[C@H](O)[C@@H]2OP(=O)(O)OC[C@H]2O[C@@H](n3cnc4c(N)ncnc43)[C@H](O)[C@@H]2OP(=O)(O)OC[C@H]2O[C@@H](n3cnc4c(N)ncnc43)[C@@H]3OP(=O)(O)O[C@@H]32)[C@H]1O [A6>P, 2',3'-cyclic phosphate-terminated hexaadenylate]
